Measured values published in patent publication US20210163424A1, “ECO-FRIENDLY MATERIALS AND METHODS FOR RENEWABLE AND SUSTAINABLE APPLICATIONS IN MATERIAL CHEMISTRY” (NDSU RESEARCH FOUNDATION, priority 2016, published 2021).

Key:
[1] = Ground state acidity (pKa) from α-plot of UV-Vis spectra at various pH; type: physicochemical
Procedure: (§1) Thus pKa* is most commonly calculated from the difference in the S1 excited state 0-0 transition of the acid (EHA) and the conjugate base (EA−)(2c). In order to determine the excited state acidity of the vanillin analogs, the ground state acidity was determined. An α-plot was made, by taking the UV-Vis spectra of ortho-vanillin at various pH using NaOH and HCl as the base and acid respectively (5c). Both iso-vanillin and vanillin ground state acidities were literature reported. After obtaining the ground state acidity the excited state acidity (pKa*) was investigated. Fluorescence, phosphorescence and luminescence spectra were measured in different solvents. It was determined that none of the vanillin analogs fluoresced appreciably and therefore were all poor photoacids. […] Various substituted Grignard reagents were used to reduce the carbonyl to a tertiary alcohol therefore eliminating the carbonyl functionality and hindering inter-system crossing (FIG. 32).
(§2) The ground state and excited state acidities were determined. […] Derivatives 1a and 1b were handled in a similar fashion.

[2] = Excited state acidity / photoacidity (pKa*) from Foster cycle; type: physicochemical
Excerpt: Investigations commenced determining the extent or existence of excited state proton transfer, photoacidity (pKa*), of vanillin and its analogs ortho-vanillin and iso-vanillin. From the Foster cycle, pKa* is mathematically defined by the following equation,
=pKa*+pKa+(EA−−EHA)/2.3RT.^1 (1)
as §1, §2

| pKa [1] | pKa* [2] | SMILES |
| --- | --- | --- |
| 8 | 4.9 | COc1cccc(C(C)O)c1O (stereo not drawn) [1c] |
| 9.8 | 9.6 | COc1cc(C(C)O)ccc1O (stereo not drawn) [1a] |
| 9.8 | 5.6 | COc1ccc(C(C)O)cc1O (stereo not drawn) [1b] |
